Measured values published in patent publication US7863324B2, “Chroman-derived compounds for the treatment of cancer” (Wisconsin Alumni Research Foundation, priority 2003, dated 2011).
Values joined by “and” are separate entries in the source; they are usually repeats but may differ in a detail not shown here. Equal entries are not always repeated. “Also recorded” adds a separate entry of the source. Where two headings read alike, the source gives them in different places.

Legend:
[1] = system: PSA secretion from LNCaP cells; assay: Androgen-induced PSA secretion from LNCaP cells; type: cell-based, human; settings: 48 h
Method: Determination of secreted PSA levels. LNCaP cells were cultured in 96 well plates (Costar) at 5,000 cells per well in DMEM/CSS 1 d before treatment. Forty-eight h after treatment, PSA levels in cell culture media were determined using the Tandem-MP PSA kit (Beckman Coulter, Inc.) according to manufacturer's instructions. PSA levels were normalized to DNA levels as determined using a Hoechst-based fluorescence DNA assay (23).

[2] = target: T1, androgen receptor in LNCaP cells (functional mutant AR) (Homo sapiens, UniProt P10275, T878A); assay: Androgen receptor binding competition assay (3H-R1881) in LNCaP cells
T1 construct: host or cells: LNCaP
T1 sequence (P10275 1-920 T878A): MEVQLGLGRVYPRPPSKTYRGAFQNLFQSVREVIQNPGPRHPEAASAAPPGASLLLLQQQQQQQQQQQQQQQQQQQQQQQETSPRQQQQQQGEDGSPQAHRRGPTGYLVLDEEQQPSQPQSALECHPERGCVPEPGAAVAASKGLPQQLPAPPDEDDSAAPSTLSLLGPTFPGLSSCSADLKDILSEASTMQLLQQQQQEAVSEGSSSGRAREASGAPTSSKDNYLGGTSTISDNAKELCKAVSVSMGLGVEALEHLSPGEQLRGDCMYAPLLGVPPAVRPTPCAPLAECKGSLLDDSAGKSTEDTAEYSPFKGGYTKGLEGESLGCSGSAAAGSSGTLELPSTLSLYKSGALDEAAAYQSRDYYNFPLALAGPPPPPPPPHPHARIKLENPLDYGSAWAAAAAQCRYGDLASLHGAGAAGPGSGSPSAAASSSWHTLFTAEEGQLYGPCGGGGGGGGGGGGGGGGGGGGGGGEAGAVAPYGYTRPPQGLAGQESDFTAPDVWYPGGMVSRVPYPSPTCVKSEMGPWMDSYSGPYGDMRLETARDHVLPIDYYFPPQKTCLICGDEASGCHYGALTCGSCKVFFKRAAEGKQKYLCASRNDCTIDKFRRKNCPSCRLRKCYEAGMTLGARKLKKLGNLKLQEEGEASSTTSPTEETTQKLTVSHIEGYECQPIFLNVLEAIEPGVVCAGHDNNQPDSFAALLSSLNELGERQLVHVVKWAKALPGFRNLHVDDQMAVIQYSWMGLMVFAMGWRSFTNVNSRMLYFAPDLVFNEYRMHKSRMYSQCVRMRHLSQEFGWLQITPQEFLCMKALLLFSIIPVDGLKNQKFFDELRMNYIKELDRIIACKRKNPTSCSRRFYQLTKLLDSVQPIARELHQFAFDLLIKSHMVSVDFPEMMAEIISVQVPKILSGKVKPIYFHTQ
Method: (§1) Androgen receptor binding competition assay. An androgen receptor binding competition assay was performed as previously described (22). LNCaP or LAPC4 prostate carcinoma cells were plated in 12-well tissue culture dishes (Costar, Corning, N.Y.) at 3.0×10^5 cells per well in phenol-red free DMEM/CSS 3 d prior to analysis. For competitor analysis, DMEM/CSS was removed by aspiration and replaced with 1 mL of phenol-red free DMEM containing 1 nM ^3H-R1881, 1 μM triamcinolone acetonide, and competitor at the specified concentrations for 2 h at 37° C. in a 5% CO2 incubator. […] Cells were washed twice with 1 mL phenol red-free DMEM and placed in 8.0 mL of ScintiVerse II Scintillation Cocktail (Fisher Scientific, Pittsburgh, Pa.) for determination of radioactivity (i.e., dpm) using a Beckman LS 6000TA Liquid Scintillation System (Beckman Instruments Inc., Fullerton, Calif.).

LNCaP cells = assay: Cell growth analysis (Hoechst DNA assay), LNCaP; type: cell-based, human; settings: 4 d
Method: (§2) Cell growth and viability analyses. Five thousand LNCaP or LAPC4 cells were plated in each well of 96-well plates (Costar) in 100 μl of DMEM/CSS. Two to 3 d after plating, cells were treated by adding 100 μl of DMEM/CSS containing 2× the concentration of the specified treatment to each well. Four d after treatment, the relative cell number was estimated by the determining DNA concentration of each well using a Hoechst-based fluorescence DNA assay, as previously described (23). Growth analysis with DU145 cells was performed similar to those with LNCaP and LAPC4 cells except DUI45 cells were initially seeded at 500 cells per well. Cell viability was determined by trypan blue exclusion and quantified by light microscopic analysis using a hemacytometer.

[3] = system: AR protein levels in LNCaP cells; assay: Immunoblot analysis of AR protein levels; type: cell-based, human; settings: 30 μM compound, 5 d, medium with 5% serum
Method: Immunoblot analysis of AR protein levels. LNCaP cells were plated at a density of 1×10^6 cells per 100 mm cell culture plate in 10 ml of DMEM/FBS and maintained in incubators at 37° C. in 5% CO2. […] Membranes were then incubated with a secondary horseradish peroxidase-conjugated anti-mouse antibody (Amersham Pharmacia Biotech, Piscataway, N.J.) and analyzed using the Enhanced Chemiluminescence Plus reagent (Amersham Pharmacia Biotech). Autoradiograms were prepared by exposing the blots to BioMax Light X-ray film (Eastman Kodak Co., Rochester, N.Y.) and developed using a CURIX 60 CP Processor (Agfa, Ridgefield Park, N.J.).

LAPC4 cells = assay: Cell growth analysis (Hoechst DNA assay), LAPC4; type: cell-based, human; settings: medium with 5% serum, 4 d
Method: as §2

Water solubility = type: physicochemical; settings: cell culture studies
[4] = Method: The oral toxicity of PMCol was determined in 6 month-old male FVB mice. A single high oral dose of 1000 mg/kg PMCol in sesame oil was administered to 4 mice by gavage. Four control mice received only sesame oil by gavage (vehicle control). […] In a second study, four 6 month-old male FVB mice received 200 mg/kg PMCol daily in sesame oil by gavage for 10 days. Three mice receiving only sesame oil (vehicle control) were used as controls. Body weights were determined daily and all mice were autopsied to examine gross organ changes on day 11.
[5] = target: androgen receptor in LAPC4 cells (normal human AR) (Homo sapiens, UniProt P10275); assay: Androgen receptor binding competition assay (3H-R1881) in LAPC4 cells
Method: as §1

[6] = system: MMTV promoter activity in LNCaP cells; assay: Androgen-stimulated MMTV promoter luciferase reporter assay, LNCaP; type: cell-based, human; settings: for decrease of R1881-induced luciferase expression: 24 h
Method: (§3) Androgen-stimulated promoter reporter assay analysis. LNCaP and LAPC4 prostate carcinoma cell lines were cultured in 12-well cell culture plates (Costar) in DMEM/CSS 2 to 3 d before transfection. Androgen-induced trancriptional activation was determined using a reporter construct with an MMTV promoter that regulates the expression of luciferase (24). LNCaP and LAPC4 cells were transfected with the MMTV/luciferase plasmid using the Effectene Transfection Reagent (Qiagen Inc., Valencia, Calif.), according to the manufacturer's instructions. Twenty-four h after transfection, cells were treated with R1881 with or without test reagents at the specified concentrations. Cell extracts were acquired 24 to 48 h after treatment by removing medium, washing 1× with PBS, and obtaining extract with 200 μL of 1× Reporter Lysis Buffer (Promega, Madison, Wis.). Luciferase activity was determined as previously described (24).

[7] = system: MMTV promoter activity in LAPC4 cells; assay: Androgen-stimulated MMTV promoter luciferase reporter assay, LAPC4; type: cell-based, human
Method: as §3

[8] = system: androgen receptor protein levels in LNCaP cells; settings: cited from earlier work
[9] = general statement; cited from earlier work

androgen receptor in LAPC4 cells (normal human AR), sequence (P10275 whole entry): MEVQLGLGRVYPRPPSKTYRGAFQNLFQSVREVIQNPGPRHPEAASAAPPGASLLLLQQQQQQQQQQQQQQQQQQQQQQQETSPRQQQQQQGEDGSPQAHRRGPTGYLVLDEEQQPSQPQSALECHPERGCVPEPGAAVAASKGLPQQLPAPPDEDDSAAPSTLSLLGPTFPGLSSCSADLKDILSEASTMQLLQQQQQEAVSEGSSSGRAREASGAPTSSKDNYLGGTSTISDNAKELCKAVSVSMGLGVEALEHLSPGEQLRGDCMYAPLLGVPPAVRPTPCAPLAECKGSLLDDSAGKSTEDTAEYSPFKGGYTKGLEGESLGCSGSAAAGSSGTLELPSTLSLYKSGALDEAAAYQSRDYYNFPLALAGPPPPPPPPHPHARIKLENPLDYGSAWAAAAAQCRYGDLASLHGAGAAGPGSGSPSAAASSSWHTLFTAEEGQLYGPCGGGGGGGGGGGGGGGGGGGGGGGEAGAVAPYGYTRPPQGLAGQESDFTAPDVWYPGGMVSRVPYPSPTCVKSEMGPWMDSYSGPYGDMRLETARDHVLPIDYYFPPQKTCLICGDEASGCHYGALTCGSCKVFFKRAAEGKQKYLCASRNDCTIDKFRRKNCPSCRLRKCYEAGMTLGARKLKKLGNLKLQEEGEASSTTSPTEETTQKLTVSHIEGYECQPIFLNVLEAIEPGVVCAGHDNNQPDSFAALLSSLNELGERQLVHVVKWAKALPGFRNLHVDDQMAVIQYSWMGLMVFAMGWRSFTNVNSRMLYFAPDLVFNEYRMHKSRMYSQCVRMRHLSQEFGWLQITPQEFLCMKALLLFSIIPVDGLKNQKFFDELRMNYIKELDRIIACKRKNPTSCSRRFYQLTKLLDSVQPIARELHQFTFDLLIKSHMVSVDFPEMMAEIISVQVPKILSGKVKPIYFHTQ

Compound: Cc1cc(C)c2c(c1C)OC(C)(C)CC2 [PMC, 2,2,5,7,8-pentamethylchroman, reference compound]
- decrease of R1881-stimulated PSA levels ([1]; 1.0 nM R1881, 30 μM compound): 20%
- anti-androgenic activity in 3H-R1881 competition compared with PMCol ([2]; LNCaP cells, FIG. 2A): less anti-androgenic activity than PMCol
- shift of R1881-stimulated biphasic LNCaP growth curve (LNCaP cells; 30 μM compound): more modest, but significant, shift to the right
- R1881 concentration giving in control cells the growth response equivalent to that at 0.3 nM R1881 under treatment (LNCaP cells; LNCaP, 30 μM compound): 0.03 nM
- AR protein levels [3]: did not result in altered AR protein levels; also recorded: not significantly altered

Compound: Cc1c(C)c2c(c(C)c1O)CCC(C)(C)O2 [PMCol, 2,2,5,7,8-pentamethyl-6-chromanol]
- concentration required to significantly reduce cell growth (LAPC4 cells): ≥ 60 µM
- water solubility (Water solubility): sufficiently water soluble to permit studies in cell culture
- gross changes in organs at autopsy ([4]; 200 mg/kg daily by gavage for 10 days, autopsy day 11): No gross changes in organs
- change in animal body mass ([4]; mouse, in vivo): no significant change
- LD50 ([4]; mouse, in vivo, po): > 1000 mg/kg body weight
- change in animal behavior or body mass ([4]; mouse, in vivo, po, 1000 mg/kg): No significant change
- decrease in 3H-R1881 binding ([5]; 30 μM compound): 75%
- IC50 ([5]; against 1 nM R1881): ~10 µM
- inhibition of R1881-stimulated PSA release ([1]; 0.05 nM R1881, 30 μM compound): completely inhibited
- decrease of R1881-stimulated PSA levels ([1]; 1.0 nM R1881, 30 μM compound): 80% and 81%
- PSA release from LNCaP cells, compound alone ([1]; 30 μM, no R1881): not affected
- inhibition at 30 µM ([1]; Homo sapiens, LNCaP, 0.05 nM R1881, 30 μM compound, read-out: inhibition of R1881-stimulated PSA release): 100%
- potency at competing for 3H-R1881 relative to bicalutamide (fold less potent) ([2]; LNCaP cells): approximately 10 fold
- IC50 ([2]; LNCaP cells, against 1 nM 3H-R1881, estimated (FIG. 2A), read-out: IC50 for competition of 3H-R1881 binding): ~10 µM and 7.2 µM
- IC50 ([2]; repeated studies, data not shown, read-out: IC50 values, repeated studies of competition for 3H-R1881 binding): 5 to 15 µM
- decrease of R1881-induced luciferase expression ([6]; 1.0 nM R1881, 25 μM compound): 50%
- decrease of R1881-induced luciferase expression ([6]; 1.0 nM R1881, 50 μM compound): 70%
- MMTV promoter activity, compound alone ([6]; no R1881): no effect
- LNCaP cell growth in presence of growth inhibitory R1881 (LNCaP cells; 1.0 nM R1881, 10 μM to 30 μM compound): significant stimulation
- shift of R1881-stimulated biphasic LNCaP growth curve (LNCaP cells; 30 μM compound): shifted to the right
- concentration significantly inhibiting R1881-stimulated LNCaP growth (LNCaP cells; LNCaP, 0.1 nM R1881): ≥ 10 µM
- R1881 concentration giving in control cells the growth response equivalent to that at 0.3 nM R1881 under treatment (LNCaP cells; LNCaP, 30 μM compound): 0.03 nM
- concentration at which LNCaP cell growth was decreased (LNCaP cells; LNCaP, FIG. 3B): ≥ 40 µM
- growth modulatory (AR agonist) activity in androgen-deficient media (LNCaP cells; LNCaP, no R1881, 10 μM to 30 μM): no growth modulatory activity
- AR protein levels [3]: did not affect androgen receptor protein levels; also recorded: did not result in altered AR protein levels; also recorded: not significantly altered

Compound: C[C@]1(O)CC[C@H]2[C@@H]3CCC4=CC(=O)CCC4=C3C=C[C@@]21C [R1881, methyltrienolone, reference compound]
- increase in PSA levels ([1]; 0.05 nM R1881): 3.1 fold
- increase in PSA levels ([1]; 1.0 nM R1881): 12 fold
- increase in MMTV/LTR driven luciferase expression ([7]; 1.0 nM R1881): 20 fold
- increase in luciferase expression ([6]; 1.0 nM R1881, 24 h): 54 fold

Compound: CC(O)(CS(=O)(=O)c1ccc(F)cc1)C(=O)Nc1ccc(C#N)c(C(F)(F)F)c1 (stereo not shown) [bicalutamide, reference compound]
- decrease of R1881-stimulated PSA levels ([1]; 1.0 nM R1881, 1 μM compound): 43%
- decrease of R1881-stimulated luciferase expression ([7]; 1.0 nM R1881, 1 μM compound): approximately 50%
- decrease of R1881-stimulated luciferase expression ([6]; 1.0 nM R1881, 1 μM compound): approximately 50%
- R1881 concentration giving in control cells the growth response equivalent to that at 0.3 nM R1881 under treatment (LNCaP cells; LNCaP, 1 μM compound): 0.03 nM

Compound: COc1cc(/C=C/C(=O)CC(=O)/C=C/c2ccc(O)c(OC)c2)ccc1O [curcumin]
- effect on AR protein levels [8]: down-regulate androgen receptor protein levels

Compound: Cc1c(C)c2c(c(C)c1O)CC[C@@](C)(CCC[C@H](C)CCC[C@H](C)CCCC(C)C)O2 [vitamin E, α-tocopherol]
- solubility in water [9]: practically insoluble in water
